The record followed here is ChEMBL document CHEMBL2311376, “Synthesis and antibacterial evaluation of a novel tricyclic oxaborole-fused fluoroquinolone” (2013).

Converted amounts (≈) assume the structure as drawn.

What all share (type): functional
The subject of assay [1] is Escherichia coli. Nature of the assay: Antimicrobial activity against Escherichia coli K-12 containing delta-lacU169 tolC::Tn10 gyrA D87Y mutant by microbroth dilution assay.
Assay [2] has as its system Escherichia coli. Kind of assay: Antimicrobial activity against Escherichia coli K-12 containing delta-lacU169 tolC::Tn10 mutant by microbroth dilution assay. Background: Dilution methods test growth across graded concentrations, often in twofold steps.
For assay [3], the system named is Escherichia coli. Nature of the assay: Antimicrobial activity against Escherichia coli K-12 containing delta-lacU169 mutant by microbroth dilution assay.
The subject of assay [4] is Escherichia coli. Nature of the assay: Antimicrobial activity against Escherichia coli K-12 containing delta-lacU169 tolC::Tn10 gyrA S83L mutant by microbroth dilution assay.
The next assay deals with Staphylococcus aureus. Kind of assay: Antimicrobial activity against Staphylococcus aureus ATCC 29213 by microbroth dilution assay.

By MIC is commonly meant the lowest concentration found to suppress growth. Lower therefore signals inhibition by little substance.

Turning to `O=c1c2c(n(C3CC3)c3cc(N4CCNCC4)c(F)cc13)COB2O`, the MIC in the assay with Escherichia coli [1] turned out to be 32 µg/mL (≈ 93.2 µM); in the assay with Escherichia coli [2], 16 µg/mL (≈ 46.6 µM); in the assay with Escherichia coli [3] it was 128 µg/mL (≈ 373 µM); with Escherichia coli [4], 64 µg/mL (≈ 186 µM); in the assay on Staphylococcus aureus, 128 µg/mL (≈ 373 µM).

Regarding `CC(C)(C)OC(=O)N1CCN(c2cc3c(cc2F)c(=O)c2c(n3C3CC3)COB2O)CC1`, the MIC with Escherichia coli [1], with Escherichia coli [2], with Escherichia coli [3], in the assay on Escherichia coli [4] and in the assay on Staphylococcus aureus was greater than 256 µg/mL in each case.

In the case of `O=c1c(Br)c(CO)n(C2CC2)c2cc(N3CCNCC3)c(F)cc12`, the MIC was greater than 256 µg/mL in the assay with Escherichia coli [1]; 128 µg/mL (≈ 323 µM) in the assay on Escherichia coli [2]; greater than 256 µg/mL in the assay on Escherichia coli [3]; 256 µg/mL (≈ 646 µM) in the assay on Escherichia coli [4]; greater than 256 µg/mL with Staphylococcus aureus.

For the molecule `O=c1cc(CO)n(C2CC2)c2cc(N3CCNCC3)c(F)cc12`, the MIC against Escherichia coli [1], against Escherichia coli [2], in the assay with Escherichia coli [3], in the assay with Escherichia coli [4] and in the assay with Staphylococcus aureus was greater than 256 µg/mL throughout.
